Data from patent US20240309043A1, “THERAPEUTICALLY ACTIVE STEROIDAL DERIVATIVES” (Organon R&D Finland Ltd., priority 2017, published 2024).

Assays:
[1] = molecular target: T1, recombinant human 17β-HSD2 (Homo sapiens, UniProt P37059); assay: Inhibition of recombinant human 17β-HSD2; format: biochemical; conditions: inhibitor 1 μM; 50 nM estradiol, 1 mM NADH, 30 min RT
T1 construct: made in house; host or cells: Sd9 (Sf9) insect cells, baculovirus (Bac to Bac Expression System)
T1 sequence (P37059 1-387): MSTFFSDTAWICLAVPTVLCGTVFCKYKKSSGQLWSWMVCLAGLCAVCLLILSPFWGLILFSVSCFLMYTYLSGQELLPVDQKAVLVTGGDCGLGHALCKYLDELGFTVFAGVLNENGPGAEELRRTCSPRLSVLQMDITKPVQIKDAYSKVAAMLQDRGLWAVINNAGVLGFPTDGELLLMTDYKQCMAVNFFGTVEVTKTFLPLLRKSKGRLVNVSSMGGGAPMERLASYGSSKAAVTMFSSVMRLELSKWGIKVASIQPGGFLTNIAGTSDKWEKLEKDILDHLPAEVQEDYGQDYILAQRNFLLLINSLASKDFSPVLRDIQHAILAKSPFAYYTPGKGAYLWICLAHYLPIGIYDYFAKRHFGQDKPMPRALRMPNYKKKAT
Method in brief: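 Sf9 baculovirus-expressed enzyme membrane extract (4 μg/ml) incubated 30 min at RT in 20 mM KH2PO4 pH 8.5 with 50 nM estradiol (³H-tracer) and 1 mM NADH, inhibitor at 1 μM or 0.1 μM, 1% DMSO. TCA-stopped; estradiol-to-estrone conversion by radio-HPLC, % inhibition = 100 − % conversion.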

[2] = molecular target: T2, recombinant human 17β-HSD1 (Homo sapiens, UniProt P14061); assay: Inhibition of recombinant human 17β-HSD1; format: biochemical; conditions: inhibitor 100 nM; 30 nM estrone, 1 mM NADPH, 30 min RT
T2 construct: made in house; host or cells: Sd9 (Sf9) insect cells, baculovirus (Bac to Bac Expression System)
T2 sequence (P14061 1-328): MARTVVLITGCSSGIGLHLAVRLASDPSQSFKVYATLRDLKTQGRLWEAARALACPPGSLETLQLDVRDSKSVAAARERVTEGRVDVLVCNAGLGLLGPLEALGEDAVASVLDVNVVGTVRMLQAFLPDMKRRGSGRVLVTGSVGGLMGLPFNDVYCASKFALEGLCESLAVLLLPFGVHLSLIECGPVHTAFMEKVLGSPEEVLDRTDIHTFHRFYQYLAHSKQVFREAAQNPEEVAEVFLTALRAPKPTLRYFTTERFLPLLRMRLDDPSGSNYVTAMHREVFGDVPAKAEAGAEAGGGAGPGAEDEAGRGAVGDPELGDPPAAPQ
Method in brief: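 Microsomes from Sf9 cells expressing human 17β-HSD1 (1 μg/ml) were incubated for 30 min at RT in 20 mM KH2PO4 pH 7.4 with 30 nM ³H-estrone, 1 mM NADPH and inhibitor at 1 μM or 0.1 μM (1% DMSO). Estrone-to-estradiol conversion was measured by radio-HPLC after TCA stop, and % inhibition was taken as 100 − % conversion.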

human hepatocytes = assay: Metabolic stability assay, human hepatocyte incubations; format: in vitro ADME; conditions: 37° C., 0-60 min, half life
Method: The in vitro metabolic stability of the compounds of the invention was determined for exemplified compounds using human hepatocyte incubations. Study compounds were incubated 0, 10, 20, 40 and 60 min at 37° C. Samples were collected at all time points and compounds were detected by LC-MS/MS analysis. The percent compound remaining is calculated by comparing the peak area of the parent compound at each time point to time zero. In vitro metabolic stability was determined as half life (T½), which was determined by regression analysis of the percent parent disappearance vs. time curve. The results are summarized in Table2.

[3] = test system: HSD1 enzyme that is expressed in rabbit placenta tissue; assay: Inhibition of E1 to E2 conversion in rabbit placenta tissue homogenate; format: biochemical; conditions: inhibitor 100 nM, 30 nM estrone, 30 min

Row | Structure (SMILES) | inhibition at 1 µM [1] | inhibition at 0.1 µM [2] | Human hepatocytes MetStab T1_2 min (human hepatocytes) | Rabbit placenta inhibition % @100 nM [3]
1 | Cc1cc(NC(=O)CC[C@@H]2C/C(=N\O)[C@@]3(C)CCC4c5cccc(F)c5CCC4C23)no1 (stereo partly drawn) [Compound 2, 3-((13S,15R,E)-4-fluoro-17-(hydroxyimino)-13-methyl-7,8,9,11,12,13,14,15,16,17-decahydro-6H-cyclopenta[a]phenanthren-15-yl)-N-(5-methylioxazol-3-yl)propanamide] | 9% | 83% | 38 min | 75%
2 | COc1ccc(NC(=O)CC[C@@H]2C/C(=N\O)[C@@]3(C)CCC4c5cccc(F)c5CCC4C23)nn1 (stereo partly drawn) [Compound 4, 3-((13S,15R,E)-4-fluoro-17-(hydroxyimino)-13-methyl-7,8,9,11,12,13,14,15,16,17-decahydro-6H-cyclopenta[a]phenanthren-15-yl)-N-(6-methoxypyridazin-3-yl)propanamide] | 13% | 87% | 42 min | –
3 | COc1ccc(NC(=O)CC[C@@H]2C/C(=N\O)[C@@]3(C)CCC4c5cccc(F)c5CCC4C23)nc1 (stereo partly drawn) [Compound 6, 3-((13S,15R,E)-4-fluoro-17-(hydroxyimino)-13-methyl-7,8,9,11,12,13,14,15,16,17-decahydro-6H-cyclopenta[a]phenanthren-15-yl)-N-(5-methoxypyridin-2-yl)propanamide] | 1% | 92% | 67 min | 79%
4 | C[C@]12CCC3c4cccc(F)c4CCC3C1[C@H](CCC(=O)Nc1ccc(F)cn1)C/C2=N\O (stereo partly drawn) [Compound 8, 3-((13S,15R,E)-4-fluoro-17-(hydroxyimino)-13-methyl-7,8,9,11,12,13,14,15,16,17-decahydro-6H-cyclopenta[a]phenanthren-15-yl)-N-(5-fluoropyridin-2-yl)propanamide] | 2% | 90% | 52 min | 37%
5 | C[C@]12CCC3c4cccc(F)c4CCC3C1[C@H](CCC(=O)Nc1cccnn1)C/C2=N\O (stereo partly drawn) [Compound 20] | 0% | 80% | 17 min | 50%
6 | CC(C)c1ccc(NC(=O)CC[C@@H]2C/C(=N\O)[C@@]3(C)CCC4c5ccc(F)cc5CCC4C23)nc1 (stereo partly drawn) [Compound 42, 3-((13S,15R,E)-3-fluoro-17-(hydroxyimino)-13-methyl-7,8,9,11,12,13,14,15,16,17-decahydro-6H-cyclopenta[a]phenanthren-15-yl)-N-(5-isopropylpyridin-2-yl)propanamide] | -5% | 96% | 78 min | 41%
7 | COc1ccnc(NC(=O)CC[C@@H]2C/C(=N\O)[C@@]3(C)CCC4c5ccc(Cl)cc5CCC4C23)c1 (stereo partly drawn) [Compound 56, 3-((13S,15R,E)-3-chloro-17-(hydroxyimino)-13-methyl-7,8,9,11,12,13,14,15,16,17-decahydro-6H-cyclopenta[a]phenanthren-15-yl)-N-(4-methoxypyridin-2-yl)propanamide] | 3% | 63% | 334 min | 0%
8 | COc1ccc(NC(=O)CC[C@@H]2C/C(=N\O)[C@@]3(C)CCC4c5ccccc5CCC4C23)nc1 (stereo partly drawn) [Compound 84] | -15% | 73% | 35 min | 35%
9 | C[C@]12CCC3c4ccccc4CCC3C1[C@H](CCC(=O)Nc1ccc(N3CCOCC3)cn1)C/C2=N\O (stereo partly drawn) [Compound 90, 3-((13S,15R,E)-17-(hydroxyimino)-13-methyl-7,8,9,11,12,13,14,15,16,17-decahydro-6H-cyclopenta[a]phenanthren-15-yl)-N-(5-morpholinopyridin-2-yl)propanamide] | -6% | 82% | 83 min | 47%
10 | CC(C)c1ccc(NC(=O)CC[C@@H]2C/C(=N\O)[C@@]3(C)CCC4c5ccccc5CCC4C23)nc1 (stereo partly drawn) [Compound 96, 3-((13S,15R,E)-17-(hydroxyimino)-13-methyl-7,8,9,11,12,13,14,15,16,17-decahydro-6H-cyclopenta[a]phenanthren-15-yl)-N-(5-isopropylpyridin-2-yl)propanamide] | -4% | 84% | 46 min | 51%
11 | C[C@]12CCC3c4ccc(Cl)cc4CCC3C1[C@H](CCC(=O)Nc1ncc(F)cc1F)C/C2=N\O (stereo partly drawn) [Compound 164, 3-((13S,15R,E)-3-chloro-17-(hydroxyimino)-13-methyl-7,8,9,11,12,13,14,15,16,17-decahydro-6H-cyclopenta[a]phenanthren-15-yl)-N-(3,5-difluoropyridin-2-yl)propanamide] | 11% | 40% | – | 5%
12 | C[C@]12CCC3c4ccccc4CCC3C1[C@H](CCC(=O)Nc1ncc(F)cc1F)C/C2=N\O (stereo partly drawn) [Compound 166, N-(3,5-difluoropyridin-2-yl)-3-((13S,15R,E)-17-(hydroxyimino)-13-methyl-7,8,9,11,12,13,14,15,16,17-decahydro-6H-cyclopenta[a]phenanthren-15-yl)propanamide] | 7% | 56% | – | 3%
13 | C[C@]12CCC3c4ccccc4CCC3C1[C@H](CCC(=O)Nc1cccc(F)n1)C/C2=N\O (stereo partly drawn) [Compound 168, N-(6-fluoropyridin-2-yl)-3-((13S,15R,E)-17-(hydroxyimino)-13-methyl-7,8,9,11,12,13,14,15,16,17-decahydro-6H-cyclopenta[a]phenanthren-15-yl)propanamide] | 9% | 26% | – | 6%
14 | C[C@]12CCC3c4ccc(Cl)cc4CCC3C1[C@H](CCC(=O)Nc1cccc(F)n1)C/C2=N\O (stereo partly drawn) [Compound 170, 3-((13S,15R,E)-3-chloro-17-(hydroxyimino)-13-methyl-7,8,9,11,12,13,14,15,16,17-decahydro-6H-cyclopenta[a]phenanthren-15-yl)-N-(6-fluoropyridin-2-yl)propanamide] | 12% | 34% | – | 13%
15 | CN(C)C(=O)c1ccc(NC(=O)CC[C@@H]2C/C(=N\O)[C@@]3(C)CCC4c5ccc(Cl)cc5CCC4C23)nc1 (stereo partly drawn) [Compound 172, 6-(3-((13S,15R,E)-3-chloro-17-(hydroxyimino)-13-methyl-7,8,9,11,12,13,14,15,16,17-decahydro-6H-cyclopenta[a]phenanthren-15-yl)propanamido)-N,N-dimethylnicotinamide] | 9% | 45% | – | 9%
16 | C[C@]12CCC3c4ccc(Cl)cc4CCC3C1[C@H](CCC(=O)Nc1cc3c([nH]c1=O)CCCC3)C/C2=N\O (stereo partly drawn) [Compound 174, 3-((13S,15R,E)-3-chloro-17-(hydroxyimino)-13-methyl-7,8,9,11,12,13,14,15,16,17-decahydro-6H-cyclopenta[a]phenanthren-15-yl)-N-(2-oxo-1,2,5,6,7,8-hexahydroquinolin-3-yl)propanamide] | 12% | 84% | – | 10%
17 | CN(C)C(=O)c1ccc(NC(=O)CC[C@@H]2C/C(=N\O)[C@@]3(C)CCC4c5cccc(F)c5CCC4C23)nc1 (stereo partly drawn) [Compound 176, 6-(3-((13S,15R,E)-4-fluoro-17-(hydroxyimino)-13-methyl-7,8,9,11,12,13,14,15,16,17-decahydro-6H-cyclopenta[a]phenanthren-15-yl)propanamido)-N,N-dimethylnicotinamide] | 5% | 87% | – | 34%
